Reference: patent US9593146B2, “CD44v6-derived peptides for treating metastasizing cancer” (AMCURE GMBH, priority 2012, dated 2017)
Residues, ends and D or L forms follow the SMILES beside them. No end group written: not given here. *: point of attachment. PEG2000 = polyethylene glycol with a molecular weight of 2000 Da; DOTA = O=C(O)CN1CCN(CC(=O)O)CCN(CC(=O)*)CCN(CC(=O)O)CC1; Myristoyl = CCCCCCCCCCCCCC(=O)*

Legend:
L3.6pl cells = assay: Human orthotopic model of pancreatic cancer, L3.6pl cells in nude mice; type: in vivo; details: for metastatic spreading to the liver (side-by-side comparison): 20 μg per injection three times per week for 3 weeks (FIG. 24); for reduction of tumor size, ranking (side-by-side comparison): 20 μg per injection three times per week for 3 weeks (FIG. 23A); for variability in the individual tumor size within the group: 20 μg per injection three times per week for 3 weeks (FIG. 23B); for tumor growth compared to the control peptide (side-by-side comparison): 20 μg per injection three times per week for 3 weeks, 5 animals per group
Experimental: In the case of the human orthotopic model, L3.6pl pancreatic carcinoma cells (passage 24-26) were suspended in Hank's balanced salt solution (Invitrogen, Karlsruhe, Germany) after trypsinization. The cells were injected orthotopically in the pancreas of male nude mice as described (Bruns C J et al. (1999) Neoplasia 1(1):50-62). Two groups of 15 mice each were injected i.p. 7 days later with either the human v6 peptide respectively rat control peptide (20 μg). For all experiments described and depicted herein either the rat 14mer control peptide or the human 14mer peptide were used. All experiments were then repeated with the rat 5mer control peptide or the human 5mer peptide (N-R-W-H-E, SEQ ID NO: 2). […] The injection was repeated three times per week for 21 days. Two days after the last treatment the animals were killed. […]
A comparison of different CD44v6 peptide derivatives was performed in animals bearing a orthotopic L3.6pl tumor. 10 groups of 5 animals each received a dose of 20 μg peptide per injection three times per week for 3 weeks with the compounds listed in Table 4. Three weeks after starting the treatment the animals were sacrificed and analyzed for macroscopic metastases and tumor volume.

Met and ERK = assay: HGF induced activation of Met and Erk in BSp73ASs6 cells (Western blot); type: cell-based, rat; details: ASs6 cells, peptides with 2000 dalton PEG-chain, 150 nM 10 min before HGF 10 ng/ml (FIG. 10)
Experimental: Serum-starved cells (24 hours) were induced with the growth factor HGF (10 ng/mL) at 37° C. for 5 minutes. Where indicated, the cells were treated with peptides (100 ng/ml) prior to induction at 37° C. for 10 minutes (100 ng/mL CD44v6 peptide or control peptide). Following the induction with HGF, cells were washed with ice-cold phosphate-buffered saline (PBS). To detect activated Met and Erk, cells were lysed in sodium dodecyl sulfate (SDS)-sample buffer containing 100 mM dithiothreitol (DTT), boiled and subjected to western blot analysis using antibodies against phospho-Met and ERK. The loading controls were performed on the same blot after stripping (62.5 mM Tris, pH 6.8, 2% SDS, 0.8% DTT) by probing with the Met respectively ERK antibody. Blots were stained using the enhanced chemiluminescence system (Thermo Fisher Scientific, Schwerte, Germany). Bands in western blot analysis were quantified with the program Image J (National Institutes of Health).
Rat pancreatic cancer cells BSp73ASs6 (also designated Ass6) were incubated for 10 min at 37° C. with either ctrl-peptides (SEQ ID No.: 15), non-pegylated v6-peptides (SEQ ID No.: 11) and increasing concentrations of the pegylated peptides, namely PEG-rat control peptide and PEG-rat CD44v6 peptide, before induction with HGF (10 ng/ml; 5 min at 37° C.).
Activation of ERK and Met was determined by standard SDS and Western Blotting techniques using a phospho-Met and phospho-Erk specific antibody (phospho-Met clone D16 cell signaling, phospho-Erk p42/44 cell signaling)
ASs6 cells, serum starved for 24 h, were induced with HGF (10 ng/ml) at 37° C. for 5 min. Where indicated, the cells were treated with PEGylated or non-PEGylated peptides before induction at 37° C. for 10 min (150 nM). Cells were washed with phosphate-buffered saline (PBS) and lysed in boiling sodium dodecyl sulfate (SDS)-sample buffer containing 100 mM dithiothreitol (DTT). Subsequently, lysates were subjected to Western blot analysis using antibodies against phosphorylated Mek and Erk (Cell signaling). The Mek and Erk loading control were performed on the same blot, stripped (62.5 mM Tris pH 6.8, 2% SDS, 0.8% DTT) and probed with the Mek and Erk antibodies. Blots were stained using the enhanced chemiluminescence system (Thermo Fisher Scientific).

HT29 cells = assay: HGF induced scattering of HT29 cells; type: cell-based, human
Experimental: FIG. 17: The human CD44 v6 specific peptides block HGF induced cell scattering and invasion into matrigel. Scattering of HT29 cells was determined in 24-well plates. First, 4.5×10^4 cells were seeded at 37° C.; after 24 h the cells were serum starved for additional 24 h. the cells were either left untreated (control) or later treated with HGF (50 ng/ml) for 24 h. Where indicated the cells were treated with the v6 specific peptide (human v6 5mer, 10mer, 14mer) or control peptide prior to induction with HGF for 30 min. Pictures were made using phase contrast microscopy. Magnification 40×.
A scatter assay was performed additionally. HT29 colon cancer cells were grown in medium containing 10% FCS. One day after seeding, the cells were starved. On the third day, the cells were induced with HGF (10 ng/ml) and pre-incubated with either no peptide, ctrl-peptides (SEQ ID No.: 15), non-pegylated v6-peptides (SEQ ID No.: 11) or the pegylated peptides, namely PEG-rat control peptide and PEG-rat CD44v6 peptide.
Scattering of HT29 cells was determined in 24-well plates. First, 4×10^5 cells were seeded at 37° C.; the cells were either left untreated or 48 h later treated with HGF (50 ng/ml) for 24 h or with PEGylated or non-PEGylated peptides (100 ng/ml) prior to HGF induction for 30 min.

BSp73ASs6 cells [1] = assay: Rat syngeneic model, subcutaneous BSp73ASs6 tumor, metastasis formation; type: in vivo; details: 200 μg per injection, intra-tumoral or intravenously three times a week, start after one week of tumor growth
Experimental: In the case of the rat syngeneic model, 1×10^6 pancreatic cells (BSp73AS and its transfectants) were subcutaneously injected into the right posterior flank of the animals. Tumors developed for four weeks. During this time period animals injected with BSp73ASs6 cells expressing Met-shRNA or control-shRNA received doxycycline in the drinking water. At the end of the experiment, primary tumors were isolated. Lungs and axillary lymph nodes were analyzed. The tissues were incubated for 24 h in a zinc-fixative (0.5 g calcium acetate, 5.0 g zinc acetate, 5.0 g zinc chloride, in 1 L 0.1 M Tris pH 7.4) and embedded in paraffin for further analysis. In case of peptide or antibody treatment tumors developed for one week before the first treatment. Where indicated, animals received 200 μg of peptide or antibody per injection three times per week for four weeks. Tumor growth was monitored weekly using a caliper. Animals were killed at day 28 or 30 after start of the treatment.
For histo-morphological analysis paraffin-embedded sections of lungs were stained with hematoxylin and eosin and periodic acid-Schiff (H&E or PAS). Serial sections of the whole tissue blocks were examined by analyzing slices every 20 μm; in each slice, the presence and the extension of the metastatic deposit was assessed, according to the procedure routinely used by pathologists to evaluate the presence of micro-metastases.

BSp73ASs6 cells [2] = assay: Apoptosis in established lung metastases (cleaved Caspase-3, cleaved Caspase-8), BSp73ASs6 rat model; type: in vivo; details: injection every second day
Experimental: 7 μm thick paraffin sections were deparaffinized and rehydrated. For P-Met staining antigen unmasking was achieved by boiling the slides in 1 mM EDTA pH 8.0 followed by incubation for 15 minutes at a sub-boiling temperature, for CD31 staining the sections were treated with Proteinase K (8 μg/ml) for 10 min at 37° C. For immunofluorescence staining of P-Met, unspecific binding was blocked with 5% goat serum (DAKO, Glostrup, Denmark) (diluted in 1×PBS/0.3% Triton X-100) for 60 minutes. In the case of immunohistochemistry, endogenous peroxidases were at first blocked with 3% H2O2 in PBS followed by incubation with biotin blocking system (Dako, Glostrup, Denmark) and then unspecific binding was inhibited by incubation with 5% FCS in PBS. The sections were incubated with the P-Met antibody (D26, dilution 1:50 in 1×PBS/1% BSA/0.3% Triton X-100), Met antibody (C-28, dilution 1:50), GFP antibody (sc-101525, dilution 1:50) or CD31 antibody (5 μg/ml) over night or VFF18 (5 μg/ml) o/n at 4° C. After washing in PBS the sections were incubated with Alexa Fluor R 546 goat anti-rabbit (in case of immunofluorescence P-Met and Met staining, dilution 1:500) or a biotinylated secondary antibody (for immunohistochemical stainings rabbit anti-rat antibody for VFF18 and CD31, goat anti-rabbit for P-Met, cleaved Caspase-3 and cleaved Caspase-8 and rabbit anti-mouse for GFP, dilution 1:500) for 45 minutes. For DAB (3,3′-diaminobenzidine) staining the sections were treated with a streptavidin-peroxidase conjugate (Dako, Glostrup, Denmark) and developed with DAB substrate system (3,3′-diaminobenzidine; Biozol, Eching, Germany). For immunofluorescence DAPI was used for nuclear staining.
One hypothesis for the disappearance of metastases is that the peptides induce apoptosis of CD44v6-expressing metastatic cells in the secondary organs. In order to test this hypothesis, the experiment described above using the BSp73ASs6 cells was repeated. The cells were injected subcutaneously in syngeneic rats and the tumor was allowed to develop for three weeks. After that time the animals were separated in two groups of 10 animals that were injected either with the specific rat CD44v6 peptide or with the control peptide (mouse) every second day. One day following each injection of the peptide, the lungs of one animal were removed and apoptosis was measured using an antibody that detects the cleaved form of Caspase 3. […] Twelve days after injection of the CD44v6 peptide, less apoptosis was observed. […] From these experiments, it is concluded that the CD44v6 peptide induces apoptosis of metastatic cells.

**Q.** Which “metastatic spreading to the liver (side-by-side comparison)” value (from here on “metastatic spreading to the liver”) (L3.6pl cells) does the source give for “DOTA-KEQWFGNRWHEGYR ({DOTA}-KEQWFGNRWHEGYR; not fully specified (residue 14)) [DOTA CD44v6-14 [r^14]]” here?
**A.** The value was “complete inhibition of metastasis”.

**Q.** Which “metastatic spreading to the liver” value (L3.6pl cells) does the source give for “DOTA-keqwfGNRWHEGyr [DOTA CD44v6-14 [daa7]]” here?
**A.** The value was “decrease of metastatic spreading”.

**Q.** Which “reduction of tumor size, ranking (side-by-side comparison)” value (“reduction of tumor size, ranking” for short) (L3.6pl cells) does the source give for “cy[KGNRWHEG] (not fully specified (bridges); printed as cy[KGNRWHEG]; also: cyclic, ring closure not given here) [cycl. 8 mer]” here?
**A.** The value was “strongest reduction of tumor size”.

**Q.** And the “variability in the individual tumor size within the group” value (“variability” for short) (L3.6pl cells)?
**A.** The value was “low variability”.

**Q.** And the “metastatic spreading to the liver” value (L3.6pl cells)?
**A.** The value was “complete inhibition of metastasis”.

**Q.** And the “metastatic spreading at 2 and 20 μg per injection” value (L3.6pl cells; 2 and 20 μg per injection, three times per week)?
**A.** Its value is “blocked metastatic spreading”.

**Q.** And the “size / growth of the primary tumor (dose reduction study)” value (L3.6pl cells; three injections per week for 3 weeks, compared to control groups (FIG. 22C))?
**A.** Its value is “drastic effect on growth of the primary tumor”.

**Q.** Which “tumor growth compared to the control peptide (side-by-side comparison)” value (L3.6pl cells) does the source give for “Myr-KEQWFGNRWHEGYR (Myristoyl-KEQWFGNRWHEGYR) [Myristoyl-14-mer]” here?
**A.** Its value is “no inhibitory effect on tumor growth”.

**Q.** Which “side effects in the animals” value (L3.6pl cells; 200 μg per injection i.p. three times per week) does the source give for `N=C(N)NCCC[C@H](NC(=O)[C@@H](N)CC(N)=O)C(=O)N[C@@H](Cc1c[nH]c2ccccc12)C(=O)N[C@@H](Cc1c[nH]cn1)C(=O)N[C@@H](CCC(=O)O)C(=O)O` [human 5mer, NRWHE] (H-NRWHE-OH; N-terminus and C-terminus assumed) here?
**A.** The value was “did not lead to side effects in the animals”.

**Q.** Which results are given for “PEG840-KEQWFGNRWHEGYR-OH [PEG840 14-mer]”?
**A.** metastatic spreading to the liver (side-by-side comparison) (L3.6pl cells): decrease of metastatic spreading; tumor growth compared to the control peptide (side-by-side comparison) (L3.6pl cells): significant reduction in tumor growth

**Q.** What does the source list for “PEG-NAAAG [PEG-control peptide, pegylated control peptide, 3 essential aa replaced by alanines, reference compound]”?
**A.** HGF induced Met-phosphorylation and Erk signaling (Met and ERK): showed no effect; HGF induced scattering of HT29 cells (HT29 cells; PEGylated peptides 100 ng/ml prior to HGF 50 ng/ml (Example 5, FIG. 11)): not with PEGylated control peptides

**Q.** Which “HGF induced clustering / scattering of HT29 cells (FIG. 11)” value (HT29 cells; HGF 10 ng/ml, peptide pre-incubation (Example 2)) does the source give for “NAAAG [ctrl-peptides, reference compound]” here?
**A.** The value was “not control peptides lead to dissociation and migration”.

**Q.** DOTA-cy[KRWHE] [cycl 5 mer] was tested. Which “reduction of tumor size, ranking” value (L3.6pl cells) did it give?
**A.** The value was “strongest reduction of tumor size”.

**Q.** And the “variability” value (L3.6pl cells)?
**A.** Its value is “low variability”.

**Q.** What about the “metastatic spreading to the liver” value (L3.6pl cells) of the same compound?
**A.** Its value is “complete inhibition of metastasis”.

**Q.** How did the “reduction of tumor size, ranking” value (L3.6pl cells) turn out when “PEG2000-KEQWFGNRWHEGYR-OH [PEG2000 14-mer]” was run?
**A.** Its value is “strongest reduction of tumor size”.

**Q.** And the “variability” value (L3.6pl cells)?
**A.** Its value is “low variability”.

**Q.** What about the “metastatic spreading to the liver” value (L3.6pl cells) of the same compound?
**A.** Its value is “decrease of metastatic spreading”.

**Q.** What about the “tumor growth compared to the control peptide (side-by-side comparison)” value (L3.6pl cells) of the same compound?
**A.** Its value is “significant reduction in tumor growth”.

**Q.** What does the source list for “mouse control peptides: mouse CD44v6 peptide used as control in the rat syngeneic model (WFQNGWQGKNP) [reference compound]”?
**A.** metastasis (axillary lymph nodes, lungs) (BSp73ASs6 cells [1]): numerous metastases were detected in the lungs; apoptosis (cleaved Caspase 3) in lung metastases (BSp73ASs6 cells [2]): No apoptosis at all was detected; lung metastasis at day twenty-two (BSp73ASs6 cells [2]): metastatic spreading was evident in the lungs

**Q.** “Myr-Y-cy[KGNRWHEG] (Myristoyl-YKGNRWHEG; not fully specified (bridges); printed as Myr-Y-cy[KGNRWHEG]; also: cyclic, ring closure not given here) [Myr-Y-cycl 8 mer]” was tested. Which “metastatic spreading to the liver” value (L3.6pl cells) did it give?
**A.** The value was “decrease of metastatic spreading”.
